US20160280743A1, “BACTERIAL MUTANTS AND METHODS OF USE” (priority 2015, published 2016)
≈ marks a conversion by molar mass, not a printed value. Read-outs that look alike come from different tables or passages of the source.

What was measured:
[1] = system: E. coli WT, WT-Pore, ΔTolC, ΔTolC-Pore; assay type: cell-based, Escherichia coli; settings: E. coli
[2] = system: P. aeruginosa PAO1, PAO1-Pore, Δ3, Δ3-Pore; test: Fold MIC change between P. aeruginosa strains (OM barrier, efflux); assay type: cell-based, Pseudomonas aeruginosa; settings: for Fold MIC change, Efflux, PAO1-Pore/Δ3-Pore / Fold MIC change, Efflux, PAO1/Δ3 / Fold MIC change, OM barrier, PAO1/PAO1-Pore / Fold MIC change, OM barrier, Δ3/Δ3-Pore: P. aeruginosa
E. coli GD102 (ΔTolC) = settings: E. coli ΔTolC without pore; 0.1% arabinose; LB, 37° C., 16 h
Method: (§3) Susceptibilities of E. coli and P. aeruginosa cells to different classes of antibiotics were determined by two-fold broth dilution method [1] with following modifications. Cells were grown in Luria-Bertani (LB) broth (tryptone 10 g/L, yeast extract 5 g/L and NaCl 5 g/L) with appropriate selection markers as needed, at 37° C. with shaking at 200 rpm. When needed, at OD600˜0.3, either L-arabinose (final concentration 0.1%) or IPTG (final concentration 0.1 mM) were added to induce the expression of the pore and cells were further incubated until OD600 reached 1.0. MICs of various antimicrobial agents were measured in 96-well micro-titer plates. For this purpose, exponentially growing cells were inoculated at a density of 10^5 cells/ml into wells containing LB medium in the presence of two-fold increasing concentrations of drugs under investigation at constant inducer concentration of 0.1% arabinose for E. coli or 0.1 mM IPTG for P. aeruginosa strains. Cell growth was determined visually or using Spark 10M microplate reader (Tecan) after incubation of the micro-titer plates at 37° C. for 16 h.
(§4) For this purpose, induced cells were dispensed into 96-well microplates with LB medium containing two-fold dilutions of an antibiotic of interest and a respective concentration of an inducer.

[3] = system: E. coli ΔTolC-Pore (GKCW103, FhuAΔC/Δ4L pore); settings: 0.1% arabinose, LB, 37° C., 16 h
Method: as §3, §4

[4] = system: P. aeruginosa PAO1Δ3 (Δ3); settings: P. aeruginosa Δ3 without pore; 0.1 mM IPTG; LB, 37° C., 16 h
Method: as §3, §4

E. coli BW 25113 (WT) = test: microbe, parasite or virus in culture; settings: Escherichia coli, 16 h, read-out: MIC BW 25113 (WT) —
Method: as §3, §4

[5] = system: E. coli WT-Pore (GKCW101, FhuAΔC/Δ4L pore); test: microbe, parasite or virus in culture; settings: Escherichia coli, 16 h, read-out: MIC BW 25113 (WT) Pore
Method: as §3, §4

P. aeruginosa PAO1 [6] = test: microbe, parasite or virus in culture; settings: Pseudomonas aeruginosa
Method: as §3, §4

[7] = system: P. aeruginosa Δ3-Pore (GKCW116, FhuAΔC/Δ4L pore); test: MIC, two-fold broth dilution, P. aeruginosa Δ3-Pore; settings: for MIC Δ3 Pore: P. aeruginosa Δ3-Pore, 0.1 mM IPTG, LB, 37° C., 16 h
Method: as §3, §4

[8] = system: P. aeruginosa PAO1, PAO1-Pore, Δ3, Δ3-Pore cells; test: Azithromycin uptake into P. aeruginosa cells by LC-MS; settings: 5 μM; 0.1 mM IPTG; LC-MS (FIG. 5C)
Method: For LC-MS analyses, P. aeruginosa cells were grown to stationary phase in 50 mM MOPS (pH 7.2) M9 minimal medium supplemented with 1% glycerol and trace ions at 37° C. Stationary phase cells were subcultured 1:100 for 16 hours in the same fresh medium at 37° C. After 16 hours, cultures were induced with 0.1 mM IPTG for 4 hours at 37° C. Cells were collected by centrifugation at room temperature and resuspended in PMG buffer at one-tenth the original culture volume. […] At appropriate time points, 100 μl of cells were removed and collected onto filter plates using a HTS Vacuum Manifold (EMD Millipore). Filters were dried overnight and extracted in a two-step process using 1) 800 μl of 100% HPLC grade methanol and 2) 200 μl of 80% HPLC methanol: 20% ultrapure water. […] For HPLC, two mobile phases (A—100% water, B—100% acetonitrile; both with 0.1% formic acid) were used with a step gradient of 20, 50 and 100% of B for 1, 4, and 11 min, respectively.

E. coli WT = test: Vancomycin disc susceptibility assay, E. coli WT; assay type: cell-based; settings: Escherichia coli, 100 μg vancomycin disc, read-out: Zone of clearance
Method: (§1) Vancomycin susceptibility spot assay. Indicated E. coli (A) and P. aeruginosa (B) strains were seeded onto LB agar plates, ˜10^8 cells per plate, with and without inducers 0.1% arabinose and 0.1 mM IPTG, respectively. […] Seeded plates were incubated overnight at 37° C. Large clearance zones can be clearly seen in the presence of inducers.

E. coli WT-Pore = test: Vancomycin disc susceptibility assay, E. coli WT-Pore; assay type: cell-based; settings: Escherichia coli, read-out: Zone of clearance, E. coli WT-Pore, 100 μg vancomycin disc
Method: as §1

E. coli ΔTolC = test: Vancomycin disc susceptibility assay, E. coli ΔTolC; assay type: cell-based; settings: Escherichia coli, read-out: Zone of clearance, E. coli ΔTolC, 100 μg vancomycin disc
Method: as §1

E. coli ΔTolC-Pore = test: Vancomycin disc susceptibility assay, E. coli ΔTolC-Pore; assay type: cell-based; settings: Escherichia coli, read-out: Zone of clearance, E. coli ΔTolC-Pore, 100 μg vancomycin disc
Method: (§2) Vancomycin susceptibility spot assay. […] […] Seeded plates were incubated overnight at 37° C. Large clearance zones can be clearly seen in the presence of inducers.

P. aeruginosa PAO1 [9] = test: Vancomycin disc susceptibility assay, P. aeruginosa PAO1; assay type: cell-based; settings: Pseudomonas aeruginosa, 200 μg vancomycin disc, read-out: Zone of clearance
Method: as §2

P. aeruginosa PAO1-Pore = test: Vancomycin disc susceptibility assay, P. aeruginosa PAO1-Pore; assay type: cell-based; settings: Pseudomonas aeruginosa, 200 μg vancomycin disc, read-out: Zone of clearance
Method: as §1

P. aeruginosa Δ3 = test: Vancomycin disc susceptibility assay, P. aeruginosa Δ3; assay type: cell-based; settings: Pseudomonas aeruginosa, 200 μg vancomycin disc, read-out: Zone of clearance
Method: as §1

P. aeruginosa Δ3-Pore = test: Vancomycin disc susceptibility assay, P. aeruginosa Δ3-Pore; assay type: cell-based; settings: Pseudomonas aeruginosa, 200 μg vancomycin disc, read-out: Zone of clearance
Method: as §1

[10] = PAO1, 16 h, read-out: MIC PAO1 —

CC[C@H]1OC(=O)[C@H](C)[C@@H](O[C@H]2C[C@@](C)(OC)[C@@H](O)[C@H](C)O2)[C@H](C)[C@@H](O[C@@H]2O[C@H](C)C[C@H](N(C)C)[C@H]2O)[C@](C)(O)C[C@@H](C)CN(C)[C@H](C)[C@@H](O)[C@]1(C)O [Azithromycin]
Fold MIC change, Efflux, WT-Pore/ΔTolC-Pore [1]: 16 fold | Fold MIC change, Efflux, WT/ΔTolC [1]: 4 fold | Fold MIC change, OM barrier, WT/WT-Pore [1]: 4 fold | Fold MIC change, OM barrier, ΔTolC/ΔTolC-Pore [1]: 16 fold | Decrease of MIC from PAO1 cells to induced Δ3-Pore cells ([2]; FIG. 5B): more than 2000 fold | Drop in MIC in PAO1-Pore cells with increasing inducer ([2]; IPTG (FIG. 5)): 32 fold | Drop in MIC in Δ3-Pore cells with increasing inducer ([2]; IPTG (FIG. 5)): 64 fold | Fold MIC change, Efflux, PAO1-Pore/Δ3-Pore [2]: 64 fold | Fold MIC change, Efflux, PAO1/Δ3 [2]: 32 fold | Fold MIC change, OM barrier, PAO1/PAO1-Pore [2]: 32 fold | Fold MIC change, OM barrier, Δ3/Δ3-Pore [2]: 64 fold | MIC GD102 (ΔTolC) — (E. coli GD102 (ΔTolC)): 0.5 µg/mL (≈ 0.668 µM) | MIC GD102 (ΔTolC) Pore [3]: 0.031 µg/mL (≈ 0.0414 µM) | MIC Δ3 — [4]: 4 µg/mL (≈ 5.34 µM) | MIC (E. coli BW 25113 (WT)): 2 µg/mL (≈ 2.67 µM) | MIC [5]: 0.5 µg/mL (≈ 0.668 µM) | MIC (P. aeruginosa PAO1 [6]; [10]): 128 µg/mL | MIC (P. aeruginosa PAO1 [6]; PAO1, read-out: MIC in P. aeruginosa PAO1 cells): 171 µM | MIC Δ3 Pore [7]: 0.063 µg/mL (≈ 0.0841 µM) | MIC in P. aeruginosa Δ3-Pore cells ([7]; induced, plateau with increasing IPTG (FIG. 5)): 0.083 µM (≈ 0.0622 µg/mL) | Accumulation of azithromycin in permeabilized PAO1-Pore and Δ3-Pore cells [8]: significantly higher than PAO1 and Δ3 cells

CN[C@H](CC(C)C)C(=O)N[C@H]1C(=O)N[C@@H](CC(N)=O)C(=O)N[C@H]2C(=O)N[C@H]3C(=O)N[C@H](C(=O)N[C@H](C(=O)O)c4cc(O)cc(O)c4-c4cc3ccc4O)[C@H](O)c3ccc(c(Cl)c3)Oc3cc2cc(c3O[C@@H]2O[C@H](CO)[C@@H](O)[C@H](O)[C@H]2O[C@H]2C[C@](C)(N)[C@H](O)[C@H](C)O2)Oc2ccc(cc2Cl)[C@H]1O [Vancomycin]
Fold MIC change, Efflux, WT-Pore/ΔTolC-Pore [1]: 2 fold | Fold MIC change, Efflux, WT/ΔTolC [1]: 0.5 fold | Fold MIC change, OM barrier, WT/WT-Pore [1]: 16 fold | Fold MIC change, OM barrier, ΔTolC/ΔTolC-Pore [1]: 64 fold | Fold MIC change, Efflux, PAO1-Pore/Δ3-Pore [2]: 2 fold | Fold MIC change, Efflux, PAO1/Δ3 [2]: 2 fold | Fold MIC change, OM barrier, PAO1/PAO1-Pore [2]: 16 fold | Fold MIC change, OM barrier, Δ3/Δ3-Pore [2]: 16 fold | zone of inhibition at 100 µg/disc (E. coli WT; Arabinose (0.1%)): 6 mm | zone of inhibition at 100 µg/disc (E. coli WT; IPTG (0.1 mM)): 6 mm | zone of inhibition at 100 µg/disc (E. coli WT; No inducer): 5 mm | zone of inhibition at 100 µg/disc (E. coli WT-Pore; Arabinose (0.1%)): 16 mm | zone of inhibition at 100 µg/disc (E. coli WT-Pore; IPTG (0.1 mM)): 11 mm | zone of inhibition at 100 µg/disc (E. coli WT-Pore; No inducer): 8 mm | zone of inhibition at 100 µg/disc (E. coli ΔTolC; Arabinose (0.1%)): 6 mm | zone of inhibition at 100 µg/disc (E. coli ΔTolC; IPTG (0.1 mM)): 5 mm | zone of inhibition at 100 µg/disc (E. coli ΔTolC; No inducer): 5 mm | zone of inhibition at 100 µg/disc (E. coli ΔTolC-Pore; Arabinose (0.1%)): 15 mm | zone of inhibition at 100 µg/disc (E. coli ΔTolC-Pore; IPTG (0.1 mM)): 16 mm | zone of inhibition at 100 µg/disc (E. coli ΔTolC-Pore; No inducer): 7 mm | zone of inhibition at 200 µg/disc (P. aeruginosa PAO1 [9]; Arabinose (0.1%)): 12 mm | zone of inhibition at 200 µg/disc (P. aeruginosa PAO1 [9]; IPTG (0.1 mM)): 10 mm | zone of inhibition at 200 µg/disc (P. aeruginosa PAO1 [9]; No inducer): 11 mm | zone of inhibition at 200 µg/disc (P. aeruginosa PAO1-Pore; Arabinose (0.1%)): 21 mm | zone of inhibition at 200 µg/disc (P. aeruginosa PAO1-Pore; IPTG (0.1 mM)): 19 mm | zone of inhibition at 200 µg/disc (P. aeruginosa Δ3; Arabinose (0.1%)): 12 mm | zone of inhibition at 200 µg/disc (P. aeruginosa Δ3; IPTG (0.1 mM)): 9 mm | zone of inhibition at 200 µg/disc (P. aeruginosa Δ3; No inducer): 10 mm | zone of inhibition at 200 µg/disc (P. aeruginosa Δ3-Pore; Arabinose (0.1%)): 22 mm | zone of inhibition at 200 µg/disc (P. aeruginosa Δ3-Pore; IPTG (0.1 mM)): 18 mm | zone of inhibition at 200 µg/disc (P. aeruginosa Δ3-Pore; No inducer): 12 mm | MIC GD102 (ΔTolC) — (E. coli GD102 (ΔTolC)): 256 µg/mL (≈ 177 µM) | MIC GD102 (ΔTolC) Pore [3]: 4 µg/mL (≈ 2.76 µM) | MIC Δ3 — [4]: 1024 µg/mL (≈ 707 µM) | MIC (E. coli BW 25113 (WT)): 128 µg/mL (≈ 88.3 µM) | MIC [5]: 8 µg/mL (≈ 5.52 µM) | MIC (P. aeruginosa PAO1 [6]; [10]): 2050 µg/mL | MIC Δ3 Pore [7]: 64 µg/mL (≈ 44.2 µM)
